According to US20150118179A1, “BIOCIDAL COMPOUNDS AND METHODS FOR USING SAME” (UNIVERSITY OF MANITOBA, priority 2012, published 2015):

What was measured:
[1] = system: E. coli ATCC 25922; assay: Biocidal activity in bacterial suspension (Example 17); format: cell-based, Escherichia coli; conditions: 15 ppm [Cl+]
Experimental: (§1) In the model study we investigated the bactericidal performance of small molecules 2 and 43 against three strains for each bacterium at the concentration of 15 ppm.
(§2) Tryptone Soya Agar (TSA) was used for bacterial culture. After sub-cultured from stocks, bacteria were allowed to grow at 37° C. for 18-20 hours to obtain logarithmic-phase cultures. Biocidal activity of 2 and 43 were completed as followed. To 20 mL bacterial suspension (10^6-10^7 colony forming units (CFU)/mL) in a centrifuge tube was added 30 μL it 2 or 43 solutions (0.28 M stock solution) respectively to achieve final 15 ppm [Cl^+]). Timing of the exposure to the disinfectant was started immediately with the addition of the synthetic compound 2 or 43. After the contact for 5 min, 10 min, and 20 min respectively, 1.0 mL aliquots were withdrawn and added to an equal volume of 0.02 N sodium thiosulfate in PBS (0.05 M, pH 7.0). The quenched suspension was serially diluted and 100 μL of each resulting dilutions were placed onto nutrient agar plates. The same procedure was also applied to compounds 1 and 42 as controls. After being incubated at 37° C. for 24 hours, viable bacterial colonies on the plates were counted. Bacterial reduction was reported according to the following equation.
(§3) Percentage reduction of bacteria (%)=(A−B)/A×100
(§4) Where A is the number of bacteria retrieved from controls (CFU/mL), and B is the number of bacteria retrieved from 2 or 43 (CFU/mL).

[2] = system: MDR-E. coli (#70094); assay: as above; format: cell-based, Escherichia coli; conditions: 15 ppm [Cl+]
Experimental: as §1, §2, §3, §4

[3] = system: MDR-E. coli (#95882); assay: as above; format: cell-based, Escherichia coli; conditions: 15 ppm [Cl+]
Experimental: as §1, §2, §3, §4

[4] = system: MRSA (#70527); assay: as above; format: cell-based, Staphylococcus aureus; conditions: 15 ppm [Cl+]
Experimental: as §1, §2, §3, §4

[5] = system: MRSA (#77090); assay: as above; format: cell-based, Staphylococcus aureus; conditions: 15 ppm [Cl+]
Experimental: as §1, §2, §3, §4

[6] = system: MRSA ATCC33592; assay: as above; format: cell-based, Staphylococcus aureus; conditions: 15 ppm [Cl+]
Experimental: as §1, §2, §3, §4

[7] = system: CA-MRSA 40065; assay: Biocidal activity in bacterial suspension (Example 18); format: cell-based, Staphylococcus aureus; conditions: Table 2, 15 ppm [Cl+], inoculum 1.57-1.75 × 10^6 CFU/mL
Experimental: Logarithmic-phase cultures of MRSA were prepared using similar way except TSA broth was used instead.
(§5) Biocidal activity of synthetic compounds was completed as followed. To 20 mL of bacterial suspension (10^5 or 10^6 cfu/mL) in a centrifuge tube was added 30 μL solution of synthetic compounds (0.282 M stock solution) to achieve a final [Cl^+] of 15 ppm. Timing of the exposure to the disinfectant was started immediately with the addition of the synthetic compound. After predetermined contact time, 1.0 mL aliquots were withdrawn and added to an equal volume of 0.02 N sodium thiosulfate in PBS (0.1 M, pH 7.4). The quenched suspension was serially diluted and 100 μL of each resulting dilution was placed onto nutrient agar plates. After being incubated at 37° C. for 24 hours, the viable bacterial colonies on the plates were counted. Bacterial reduction was reported according to:
as §3
(§6) Log reduction=Log(A/B) (4)
(§7) where A is the number of bacteria in the starting inoculum (cfu/mL), and B is the number of bacteria retrieved from synthetic compounds (cfu/mL).

[8] = system: P. aeruginosa 73104; assay: as above; format: cell-based, Pseudomonas aeruginosa; conditions: 15 ppm [Cl+]
Experimental: Logarithmic-phase cultures of P. aeruginosa were prepared by initially suspending several colonies in cation-supplemented Mueller-Hinton broth (Oxoid, Nepean, Ontario, Canada) at a density equivalent to a 0.5 McFarland standard (1×10^8 cfu/mL). This suspension was then diluted 1:100 and 20 μL of the diluted suspension was further diluted in 60 mL of cation-supplemented Mueller-Hinton broth. Following overnight growth at 37° C., suspensions were diluted 1:[…] to get inoculums of approximately 1×10^6 or 1×10^5 cfu/mL.
as §5, §3, §6, §7

[9] = Table 3, contact 60 min, inoculum 2.26 × 10^5 CFU/mL
[10] = Table 3, contact 90 min, inoculum 2.26 × 10^5 CFU/mL
[11] = Table 4, contact 3 min, inoculum 2.26-2.98 × 10^5 CFU/mL
[12] = Table 4, contact 5 min, inoculum 2.26-2.98 × 10^5 CFU/mL
[13] = Table 4, contact 10 min, inoculum 2.26-2.98 × 10^5 CFU/mL
[14] = Table 4, contact 20 min, inoculum 2.26-2.98 × 10^5 CFU/mL
[15] = Table 4, contact 30 min, inoculum 2.26-2.98 × 10^5 CFU/mL
[16] = Table 4, contact 45 min, inoculum 2.26-2.98 × 10^5 CFU/mL
[17] = Table 4, contact 60 min, inoculum 2.26-2.98 × 10^5 CFU/mL

Q: Which results are given for `CC1(C)C(=O)N(CCC[N+](C)(C)C)C(=O)N1Cl` [Compound 2]?
A: Bacteria reduction Log10 ([1]; contact 5 min): 6.63 Log10; Bacteria reduction % ([1]; contact 5 min, inoculum 1.46-5.87 × 10^6 CFU/mL): 100%; Bacteria reduction % ([1]; contact 10 min): 100%; Bacteria reduction Log10 ([1]; contact 10 min): 6.63 Log10; Bacteria reduction % ([1]; contact 20 min): 100%; Bacteria reduction Log10 ([1]; contact 20 min): 6.63 Log10; Bacteria reduction % ([2]; contact 5 min): 100%; Bacteria reduction Log10 ([2]; contact 5 min): 6.17 Log10; Bacteria reduction % ([2]; contact 10 min): 100%; Bacteria reduction Log10 ([2]; contact 10 min): 6.17 Log10; Bacteria reduction % ([2]; contact 20 min): 100%; Bacteria reduction Log10 ([2]; contact 20 min): 6.17 Log10; Bacteria reduction % ([3]; contact 5 min): 100%; Bacteria reduction Log10 ([3]; contact 5 min): 6.67 Log10; Bacteria reduction % ([3]; contact 10 min): 100%; Bacteria reduction Log10 ([3]; contact 10 min): 6.67 Log10; Bacteria reduction % ([3]; contact 20 min): 100%; Bacteria reduction Log10 ([3]; contact 20 min): 6.67 Log10; Bacteria reduction % ([4]; contact 5 min): 100%; Bacteria reduction Log10 ([4]; contact 5 min): 6.76 Log10; Bacteria reduction % ([4]; contact 10 min): 100%; Bacteria reduction Log10 ([4]; contact 10 min): 6.76 Log10; Bacteria reduction % ([4]; contact 20 min): 100%; Bacteria reduction Log10 ([4]; contact 20 min): 6.76 Log10; Bacteria reduction % ([5]; contact 5 min): 100%; Bacteria reduction Log10 ([5]; contact 5 min): 6.16 Log10; Bacteria reduction % ([5]; contact 10 min): 100%; Bacteria reduction Log10 ([5]; contact 10 min): 6.16 Log10; Bacteria reduction % ([5]; contact 20 min): 100%; Bacteria reduction Log10 ([5]; contact 20 min): 6.16 Log10; Bacteria reduction % ([6]; contact 5 min): 100%; Bacteria reduction Log10 ([6]; contact 5 min): 6.60 Log10; Bacteria reduction % ([6]; contact 10 min): 100%; Bacteria reduction Log10 ([6]; contact 10 min): 6.60 Log10; Bacteria reduction % ([6]; contact 20 min): 100%; Bacteria reduction Log10 ([6]; contact 20 min): 6.60 Log10; Bacteria reduction % ([7]; contact 3 min): 92.8%; Bacteria reduction Log10 ([7]; contact 3 min): 1.14 Log10; Bacteria reduction % ([7]; contact 5 min): 93.8%; Bacteria reduction Log10 ([7]; contact 5 min): 1.20 Log10; Bacteria reduction % ([7]; contact 10 min): 90.3%; Bacteria reduction Log10 ([7]; contact 10 min): 1.01 Log10; Bacteria reduction % ([7]; contact 60 min): 99.6%; Bacteria reduction Log10 ([7]; contact 60 min): 2.36 Log10; Reduction of P. aeruginosa ([8]; 10^6 cfu/mL P. aeruginosa, within 60 min of contact): cannot bring any significant reduction; Bacteria reduction % ([8]; Table 3, contact 3 min, inoculum 2.26 × 10^5 CFU/mL): 37.6 ± 1.9%; Bacteria reduction % ([8]; Table 3, contact 5 min, inoculum 2.26 × 10^5 CFU/mL): 26.6 ± 12.5%; Bacteria reduction Log10 ([8]; Table 3, contact 10 min, inoculum 2.26 × 10^5 CFU/mL): 0.41 ± 0.02 Log10; Bacteria reduction % [8, 9]: 100%; Bacteria reduction Log10 [8, 9]: 5.35 Log10; Bacteria reduction % [8, 10]: 100%; Bacteria reduction Log10 [8, 10]: 5.35 Log10; Bacteria reduction % [8, 11]: 37.6%; Bacteria reduction Log [8, 11]: 0.2 Log; Bacteria reduction % [8, 12]: 26.6%; Bacteria reduction Log [8, 12]: 0.14 Log; Bacteria reduction % [8, 13]: 61.5%; Bacteria reduction Log [8, 13]: 0.41 Log; Bacteria reduction % [8, 14]: 99.65%; Bacteria reduction Log [8, 14]: 2.46 Log; Bacteria reduction % [8, 15]: 99.99%; Bacteria reduction Log [8, 15]: 4.02 Log; Bacteria reduction % [8, 16]: 99.99%; Bacteria reduction Log [8, 16]: 4.67 Log; Bacteria reduction % [8, 17]: 100%; Bacteria reduction Log [8, 17]: 5.47 Log
